Active and inactive are the calls of the source. How the calls were made is not given here.

The series relates to CCRIS mutagenicity, Ames/micronucleus/aberration tests. Briefly: CCRIS mutagenicity studies.
[1] abbreviates: Test System: AMES SALMONELLA TYPHIMURIUM, Strain/Indicator: TA98, Metabolic Activation: NONE, Method: STANDARD PLATE.
Setting [2] is: Test System: AMES SALMONELLA TYPHIMURIUM, Strain/Indicator: TA100, Metabolic Activation: NONE, Method: STANDARD PLATE.
[3] abbreviates: Test System: AMES SALMONELLA TYPHIMURIUM, Strain/Indicator: TA98, Metabolic Activation: NONE, Method: PREINCUBATION
Where [4] appears, read: Test System: AMES SALMONELLA TYPHIMURIUM, Strain/Indicator: TA100, Metabolic Activation: NONE, Method: PREINCUBATION

Take `Nc1ncnc2c1ncn2[C@@H]1O[C@H](CO)C[C@H]1O`: the mutagenic call was “active; positive” under setting [1]; “active; positive” (Test System: AMES SALMONELLA TYPHIMURIUM, Strain/Indicator: TA98, Metabolic Activation: RAT, LIVER, S-9, POLYCHLORINATED BIPHENYLS, Method: STANDARD PLATE); “active; positive” under setting [2]; “active; positive” (Test System: AMES SALMONELLA TYPHIMURIUM, Strain/Indicator: TA100, Metabolic Activation: RAT, LIVER, S-9, POLYCHLORINATED BIPHENYLS, Method: STANDARD PLATE).

Turning to `NC(CO)C(=O)NNCc1ccc(O)c(O)c1O` (centres undefined), the mutagenic call by setting is: under setting [2], “active; positive”; (Test System: AMES SALMONELLA TYPHIMURIUM, Strain/Indicator: TA100, Metabolic Activation: RAT, LIVER, S-9, PHENOBARBITAL, Method: STANDARD PLATE) “active; positive”; (Test System: UDS RAT HEPATOCYTES, Strain/Indicator: THY INCORP, Metabolic Activation: NONE, Method: AUTORADIOGRAPHY) “inactive; negative”.

As to `O=P(O)(O)Oc1c(Br)cc(Br)cc1-c1cc(Br)cc(Br)c1O`, the mutagenic call by setting is: under setting [1], “inactive; negative”; (Test System: AMES SALMONELLA TYPHIMURIUM, Strain/Indicator: TA98, Metabolic Activation: RAT, LIVER, S-9, KANECHLOR 400, Method: STANDARD PLATE) “inactive; negative”; under setting [2], “inactive; negative”; (Test System: AMES SALMONELLA TYPHIMURIUM, Strain/Indicator: TA100, Metabolic Activation: RAT, LIVER, S-9, KANECHLOR 400, Method: STANDARD PLATE) “inactive; negative”; (Test System: AMES SALMONELLA TYPHIMURIUM, Strain/Indicator: TA1535, Metabolic Activation: NONE, Method: STANDARD PLATE) “inactive; negative”; (Test System: AMES SALMONELLA TYPHIMURIUM, Strain/Indicator: TA1535, Metabolic Activation: RAT, LIVER, S-9, KANECHLOR 400, Method: STANDARD PLATE) “inactive; negative”. Moreover, the mutagenic call is “inactive; negative” (Test System: AMES SALMONELLA TYPHIMURIUM, Strain/Indicator: TA1537, Metabolic Activation: NONE, Method: STANDARD PLATE); “inactive; negative” (Test System: AMES SALMONELLA TYPHIMURIUM, Strain/Indicator: TA1537, Metabolic Activation: RAT, LIVER, S-9, KANECHLOR 400, Method: STANDARD PLATE); “inactive; negative” (Test System: AMES SALMONELLA TYPHIMURIUM, Strain/Indicator: TA1538, Metabolic Activation: NONE, Method: STANDARD PLATE); “inactive; negative” (Test System: AMES SALMONELLA TYPHIMURIUM, Strain/Indicator: TA1538, Metabolic Activation: RAT, LIVER, S-9, KANECHLOR 400, Method: STANDARD PLATE).

Turning to `Nc1cc([N+](=O)[O-])ccc1CO`, the mutagenic call runs as follows: under setting [3], “active; positive”; (Test System: AMES SALMONELLA TYPHIMURIUM, Strain/Indicator: TA98, Metabolic Activation: RAT, LIVER, S-9, PHENOBARBITAL AND 5,6-BENZOFLAVONE, Method: PREINCUBATION) “active; positive”; under setting [4], “active; positive”; (Test System: AMES SALMONELLA TYPHIMURIUM, Strain/Indicator: TA100, Metabolic Activation: RAT, LIVER, S-9, PHENOBARBITAL AND 5,6-BENZOFLAVONE, Method: PREINCUBATION) “active; positive”.

Consider `O=NN1CCSC1[C@H](O)[C@@H](O)[C@@H](O)CO` (some centres undefined), for which the mutagenic call under setting [3] is “inactive; negative”; the mutagenic call under setting [1] is “inactive; negative”; the mutagenic call (Test System: AMES SALMONELLA TYPHIMURIUM, Strain/Indicator: TA98, Metabolic Activation: RAT, LIVER, S-9, AROCLOR 1254, Method: PREINCUBATION) is “inactive; negative”; the mutagenic call (Test System: AMES SALMONELLA TYPHIMURIUM, Strain/Indicator: TA98, Metabolic Activation: RAT, LIVER, S-9, AROCLOR 1254, Method: STANDARD PLATE) was “inactive; negative”; the mutagenic call under setting [4] is “inactive; negative”; the mutagenic call under setting [2] is “inactive; negative”. Further, the mutagenic call reads like this: (Test System: AMES SALMONELLA TYPHIMURIUM, Strain/Indicator: TA100, Metabolic Activation: RAT, LIVER, S-9, AROCLOR 1254, Method: PREINCUBATION) “inactive; negative”; (Test System: AMES SALMONELLA TYPHIMURIUM, Strain/Indicator: TA100, Metabolic Activation: RAT, LIVER, S-9, AROCLOR 1254, Method: STANDARD PLATE) “inactive; negative”.

The values are drawn from PubChem BioAssay AID1259407 (Chemical Carcinogenesis Research Information System (CCRIS), 2018).
